Reference: US20250177478A1, “G ALPHA Q/11 INHIBITORS FOR USE AS AN ANALGESIC” (University of Florida Research Foundation, Incorporated, priority 2022, published 2025)

What was measured:
DRG nociceptors = test: Whole cell patch-clamp recordings of acutely dissociated DRG nociceptors; format: cell-based, mouse
Experimental: F. Acutely dissociated dorsal root ganglion (DRG) Preparation. Male or female mice between 1 and 2 months of age were used for acute DRG isolations. […] Dissociated DRG cultures were prepared as previously described (Perner C et al. “Protocol for dissection and culture of murine dorsal root ganglia neurons to study neuropeptide release.” STAR Protoc (2021) 2:100333). Briefly, DRGs were dissected from 1- to 2-month-old mice in Hank's buffered salt solution (HBSS) and digested with Collagenase A and Dispase II for 25 min at 37° C., centrifuged at 200×g for 5 min, and washed with Dulbecco's modified Eagle's medium (DMEM) supplemented with 10% fetal bovine serum (FBS), glutamate, sodium pyruvate, 1% penicillin and 1% streptomycin. DRGs were then triturated in Neurobasal A medium supplemented with 10% FBS, 1% penicillin, 1% streptomycin, 1% GlutaMAX, 2% B27, […] nerve growth factor (NGF) and […] glial cell line-derived neurotrophic factor (GDNF). After plating on laminin-coated coverslips, cells were incubated at 37° C. overnight. Experiments were performed the day after dissection.
G. Whole cell patch-clamp recordings. Nociceptors were identified by physiological classification protocols (Petruska J C et al. “Subclassified acutely dissociated cells of rat DRG: histochemistry and patterns of capsaicin-, proton-, and ATP-activated currents.” J Neurophysiol (2000) 84:2365-2379) summarized in FIG. 10 and further by responsivity to morphine. Each experimental group consisted of 12-18 DRG recordings from three animals, 1-2 of which were female. Hyperpolarization-activated current (Ih) and kinetics of resulting transient currents were determined by stepping membrane potential from −60 to −110 mV for 500 ms in 10 mV increments (FIG. 10A). Outward currents were identified by first preconditioning membrane potential at −100 mV for 500 ms and then stepping from −60 to 40 mV in 20 mV increments for 200 ms (FIG. 10D). Inward current dynamics were determined by preconditioning at −80 mV and then stepping from −60 to 40 mV in 10 mV increments (FIG. 10G). A 6-s, 0- to 2-nA continuous ramp stimulation protocol was used to determine rheobase. Membrane capacitance (Cm), series resistance (Rs) and input resistance (Ri) were tested with a hyperpolarizing 10 mV pulse of 10 ms duration initially and at a 30 s interval throughout the recording period. Cells were recorded only if initial series resistance was ≤20 MΩ and excluded if Rs varied >20% while recording. Offline analysis identified clustering of a population n=30 with uniform morphine responsivity that was selected for further analysis, with basal parameters #SEM: Cm=27.31±4.72 pF, Ri=492±19.29 MQ, Ih=7.10±2.45 pA·pF−1, IA tau=8.39±0.41 ms and action potential (AP) tau=1.22±0.08 ms. K+ internal was used for all recordings, containing: 6 mM NaCl, 4 mM NaOH, 130 mM K-gluconate, 11 mM ethylene glycol-bis(β-aminoethyl ether)tetraacetic acid (EGTA), 1 mM CaCl2, 1 mM MgCl2, 10 mM N-(2-hydroxyethyl)piperazine-N′-(2-ethanesulphonic acid) (HEPES), 2 mM Na2ATP, and 0.2 mM Na2GTP 0.2, adjusted to pH 7.3-7.4 with HCl. External artificial CSF contained: 125 mM NaCl, 3 mM KCl, 1.2 mM KH2PO4, 1.2 mM MgSO4, 25 mM NaHCO3, 2 mM CaCl2), and 10 mM dextrose 10, adjusted to pH 7.3-7.4 with HCl.

C57BL/6 mice = details: morphine 5 mg/kg s.c. alone, 120 min
Text: A. Experimental animals. C57BL/6 mice (6-8 weeks old) of both sexes were used. Mice were housed in groups on a 12-h light-dark cycle (6:00 am light cycle; 6:00 pm dark cycle) with food (Teklad Global 16% protein rodent diets; Envigo Inc., WI, USA) and water available ad libitum. Animal groups were compiled to ensure minimization of factors (e.g., weight, sex, and health). Mice were within 20-28 g in weight at start of all studies. All tested groups contained a control group and consisted of male and female mice. Males and females were tested on the same day but at different times so that they were not in the room at the same time. All the experiments were tested during the light cycle between 8:00 am and 3:00 pm to avoid any long-term disruption of sleep cycles. Mice were transferred to the behavioural testing room at least 45 min before the first test to acclimatize. Following behavioural evaluation, animals were killed by CO2 inhalation, followed by cervical dislocation and postmortem decapitation.
B. Drug treatments. […] The dose of YM-254890 for subcutaneous injection was taken from previous published studies. The dose of morphine selected for subcutaneous administration (2.5, 5 and 10 mg kg-1) is commonly used in mouse analgesia. For the combined administration of morphine and YM-254890 on thermal anti-nociception, YM-254890 was administered 10 min before the morphine. The latency of response was measured before injection of drugs (baseline latency response) and at different time intervals (post-treatment latency response) after drugs injection.
C. Intrathecal injections. Intrathecal (i.t.) administration was performed following the method described previously (Hylden J L et al. “Intrathecal morphine in mice: a new technique.” Eur J Pharmacol (1980) 67:313-316; Li D et al. “Direct Intrathecal Injection of Recombinant Adeno-associated Viruses in Adult Mice.” J Vis Exp (2019)) with slight modifications. All intrathecal injections were performed using a 25 μL Hamilton syringe with a 30-gauge needle. The injection volume was 5 μL for each mouse. […] Each solution was injected without injection cannulae. Intrathecal injections were made into the L5-L6 intervertebral space of unanesthetized mice. The flick of the tail was considered indicative of a successful i.t. administration.

Question: `CN1CC[C@]23c4c5ccc(O)c4O[C@H]2[C@@H](O)C=C[C@H]3[C@H]1C5` [morphine] was tested. Which “rapidly inactivating A-type potassium currents (IA), voltage-step protocol 2” value (DRG nociceptors; YM-254890 or morphine alone) did it give?
Answer: The value was “significantly inhibited IA”.

Question: What about the “AP amplitude, voltage-step protocol” value (DRG nociceptors; bath application alone: 100 nM YM or 1 μM morphine) of the same compound?
Answer: Its value is “moderately reduced AP amplitude”.

Question: And the “excitability of DRG nociceptors (rheobase, 0-2 nA ramp stimulation)” value (DRG nociceptors; bath application alone: 1 μM morphine or 100 nM YM)?
Answer: The value was “substantially decreased excitability”.

Question: What about the “locomotion in open-field test” value (C57BL/6 mice) of the same compound?
Answer: Its value is “locomotor-sensitizing effect”.
